# The source made the active and inactive calls. No rule for the calls is given here.
# System: CCRIS mutagenicity, Ames/micronucleus/aberration tests
# Assay: CCRIS mutagenicity studies
# [1] = Test System: AMES SALMONELLA TYPHIMURIUM, Strain/Indicator: TA100, Metabolic Activation: NONE, Method: STANDARD PLATE
# [2] = Test System: AMES SALMONELLA TYPHIMURIUM, Strain/Indicator: TA98, Metabolic Activation: NONE, Method: PREINCUBATION
# [3] = Test System: AMES SALMONELLA TYPHIMURIUM, Strain/Indicator: TA100, Metabolic Activation: NONE, Method: PREINCUBATION
structure (smiles),measurement,setting,value
O=CC1CO1 (stereo not drawn),mutagenic call,[1],active; positive
same,mutagenic call,"Test System: AMES SALMONELLA TYPHIMURIUM, Strain/Indicator: TA1535, Metabolic Activation: NONE, Method: STANDARD PLATE",active; positive
same,mutagenic call,"Test System: E. COLI, Strain/Indicator: WP2 UVRA, Metabolic Activation: HAMSTER, LIVER, S-9, AROCLOR 1254, Method: PREINCUBATION",active; positive
same,mutagenic call,"Test System: E. COLI, Strain/Indicator: WP2 UVRA, Metabolic Activation: HAMSTER, LIVER, S-9, AROCLOR 1254, Method: STANDARD PLATE",active; positive
same,mutagenic call,"Test System: E. COLI, Strain/Indicator: WP2 UVRA, Metabolic Activation: HAMSTER, LIVER, S-9, Method: PREINCUBATION",active; positive
same,mutagenic call,"Test System: E. COLI, Strain/Indicator: WP2 UVRA, Metabolic Activation: HAMSTER, LIVER, S-9, Method: STANDARD PLATE",active; positive
same,mutagenic call,"Test System: E. COLI, Strain/Indicator: WP2 UVRA, Metabolic Activation: MOUSE, LIVER, S-9, AROCLOR 1254, Method: PREINCUBATION",active; positive
same,mutagenic call,"Test System: E. COLI, Strain/Indicator: WP2 UVRA, Metabolic Activation: MOUSE, LIVER, S-9, AROCLOR 1254, Method: STANDARD PLATE",active; positive
same,mutagenic call,"Test System: E. COLI, Strain/Indicator: WP2 UVRA, Metabolic Activation: MOUSE, LIVER, S-9, Method: PREINCUBATION",active; positive
same,mutagenic call,"Test System: E. COLI, Strain/Indicator: WP2 UVRA, Metabolic Activation: MOUSE, LIVER, S-9, Method: STANDARD PLATE",active; positive
same,mutagenic call,"Test System: E. COLI, Strain/Indicator: WP2 UVRA, Metabolic Activation: NONE, Method: PREINCUBATION",active; positive
same,mutagenic call,"Test System: E. COLI, Strain/Indicator: WP2 UVRA, Metabolic Activation: NONE, Method: STANDARD PLATE",active; positive
same,mutagenic call,"Test System: E. COLI, Strain/Indicator: WP2 UVRA, Metabolic Activation: RAT, LIVER, S-9, AROCLOR 1254, Method: PREINCUBATION",active; positive
same,mutagenic call,"Test System: E. COLI, Strain/Indicator: WP2 UVRA, Metabolic Activation: RAT, LIVER, S-9, AROCLOR 1254, Method: STANDARD PLATE",active; positive
same,mutagenic call,"Test System: E. COLI, Strain/Indicator: WP2 UVRA, Metabolic Activation: RAT, LIVER, S-9, Method: PREINCUBATION",active; positive
same,mutagenic call,"Test System: E. COLI, Strain/Indicator: WP2 UVRA, Metabolic Activation: RAT, LIVER, S-9, Method: STANDARD PLATE",active; positive
same,mutagenic call,"Test System: UDS HUMAN FIBROBLASTS, Strain/Indicator: THY INCORP (NON-S-PHASE), Metabolic Activation: NONE, Method: LIQUID SCINTILLATION COUNTING",active; positive
CCCCCCCCCCCCCCCCCC[N+](C)(C)Cc1ccccc1,mutagenic call,"Test System: AMES SALMONELLA TYPHIMURIUM, Strain/Indicator: TA97, Metabolic Activation: HAMSTER, LIVER, S-9, AROCLOR 1254 (10%), Method: PREINCUBATION",inactive; negative
same,mutagenic call,"Test System: AMES SALMONELLA TYPHIMURIUM, Strain/Indicator: TA97, Metabolic Activation: HAMSTER, LIVER, S-9, AROCLOR 1254 (30%), Method: PREINCUBATION",inactive; negative
same,mutagenic call,"Test System: AMES SALMONELLA TYPHIMURIUM, Strain/Indicator: TA97, Metabolic Activation: NONE, Method: PREINCUBATION",inactive; negative
same,mutagenic call,"Test System: AMES SALMONELLA TYPHIMURIUM, Strain/Indicator: TA97, Metabolic Activation: RAT, LIVER, S-9, AROCLOR 1254 (10%), Method: PREINCUBATION",inactive; negative
same,mutagenic call,"Test System: AMES SALMONELLA TYPHIMURIUM, Strain/Indicator: TA97, Metabolic Activation: RAT, LIVER, S-9, AROCLOR 1254 (30%), Method: PREINCUBATION",inactive; negative
same,mutagenic call,"Test System: AMES SALMONELLA TYPHIMURIUM, Strain/Indicator: TA98, Metabolic Activation: HAMSTER, LIVER, S-9, AROCLOR 1254 (10%), Method: PREINCUBATION",inactive; negative
same,mutagenic call,"Test System: AMES SALMONELLA TYPHIMURIUM, Strain/Indicator: TA98, Metabolic Activation: HAMSTER, LIVER, S-9, AROCLOR 1254 (30%), Method: PREINCUBATION",inactive; negative
same,mutagenic call,[2],inactive; negative
same,mutagenic call,"Test System: AMES SALMONELLA TYPHIMURIUM, Strain/Indicator: TA98, Metabolic Activation: RAT, LIVER, S-9, AROCLOR 1254 (10%), Method: PREINCUBATION",inactive; negative
same,mutagenic call,"Test System: AMES SALMONELLA TYPHIMURIUM, Strain/Indicator: TA98, Metabolic Activation: RAT, LIVER, S-9, AROCLOR 1254 (30%), Method: PREINCUBATION",inactive; negative
same,mutagenic call,"Test System: AMES SALMONELLA TYPHIMURIUM, Strain/Indicator: TA100, Metabolic Activation: HAMSTER, LIVER, S-9, AROCLOR 1254 (10%), Method: PREINCUBATION",inactive; negative
same,mutagenic call,"Test System: AMES SALMONELLA TYPHIMURIUM, Strain/Indicator: TA100, Metabolic Activation: HAMSTER, LIVER, S-9, AROCLOR 1254 (30%), Method: PREINCUBATION",inactive; negative
same,mutagenic call,[3],inactive; negative
same,mutagenic call,"Test System: AMES SALMONELLA TYPHIMURIUM, Strain/Indicator: TA100, Metabolic Activation: RAT, LIVER, S-9, AROCLOR 1254 (10%), Method: PREINCUBATION",inactive; negative
same,mutagenic call,"Test System: AMES SALMONELLA TYPHIMURIUM, Strain/Indicator: TA100, Metabolic Activation: RAT, LIVER, S-9, AROCLOR 1254 (30%), Method: PREINCUBATION",inactive; negative
same,mutagenic call,"Test System: AMES SALMONELLA TYPHIMURIUM, Strain/Indicator: TA1535, Metabolic Activation: HAMSTER, LIVER, S-9, AROCLOR 1254 (10%), Method: PREINCUBATION",inactive; negative
same,mutagenic call,"Test System: AMES SALMONELLA TYPHIMURIUM, Strain/Indicator: TA1535, Metabolic Activation: HAMSTER, LIVER, S-9, AROCLOR 1254 (30%), Method: PREINCUBATION",inactive; negative
same,mutagenic call,"Test System: AMES SALMONELLA TYPHIMURIUM, Strain/Indicator: TA1535, Metabolic Activation: NONE, Method: PREINCUBATION",inactive; negative
same,mutagenic call,"Test System: AMES SALMONELLA TYPHIMURIUM, Strain/Indicator: TA1535, Metabolic Activation: RAT, LIVER, S-9, AROCLOR 1254 (10%), Method: PREINCUBATION",inactive; negative
same,mutagenic call,"Test System: AMES SALMONELLA TYPHIMURIUM, Strain/Indicator: TA1535, Metabolic Activation: RAT, LIVER, S-9, AROCLOR 1254 (30%), Method: PREINCUBATION",inactive; negative
same,mutagenic call,"Test System: AMES SALMONELLA TYPHIMURIUM, Strain/Indicator: TA1537, Metabolic Activation: HAMSTER, LIVER, S-9, AROCLOR 1254 (30%), Method: PREINCUBATION",inactive; negative
same,mutagenic call,"Test System: AMES SALMONELLA TYPHIMURIUM, Strain/Indicator: TA1537, Metabolic Activation: NONE, Method: PREINCUBATION",inactive; negative
same,mutagenic call,"Test System: AMES SALMONELLA TYPHIMURIUM, Strain/Indicator: TA1537, Metabolic Activation: RAT, LIVER, S-9, AROCLOR 1254 (30%), Method: PREINCUBATION",inactive; negative
CN(C)c1ccc(-c2ccc(N(C)C)cc2)cc1,mutagenic call,[2],inactive; negative
same,mutagenic call,"Test System: AMES SALMONELLA TYPHIMURIUM, Strain/Indicator: TA98, Metabolic Activation: NONE, Method: STANDARD PLATE",inactive; negative
same,mutagenic call,"Test System: AMES SALMONELLA TYPHIMURIUM, Strain/Indicator: TA98, Metabolic Activation: RAT LIVER S-9, AROCLOR 1254, Method: PREINCUBATION",active; positive
same,mutagenic call,"Test System: AMES SALMONELLA TYPHIMURIUM, Strain/Indicator: TA98, Metabolic Activation: RAT, LIVER, S-9, AROCLOR 1254, Method: STANDARD PLATE",active; positive
same,mutagenic call,[3],inactive; negative
same,mutagenic call,[1],inactive; negative
same,mutagenic call,"Test System: AMES SALMONELLA TYPHIMURIUM, Strain/Indicator: TA100, Metabolic Activation: RAT LIVER S-9, AROCLOR 1254, Method: PREINCUBATION",inactive; negative
same,mutagenic call,"Test System: AMES SALMONELLA TYPHIMURIUM, Strain/Indicator: TA100, Metabolic Activation: RAT, LIVER, S-9, AROCLOR 1254, Method: STANDARD PLATE",inactive; negative

# From PubChem BioAssay AID1259407 (Chemical Carcinogenesis Research Information System (CCRIS), 2018)
